Data as given in ChEMBL document CHEMBL4190176 (Medchemcomm, 2016).

Biological target: T1, Bifunctional epoxide hydrolase 2 (Homo sapiens, UniProt P34913)
T1 sequence (P34913 whole entry): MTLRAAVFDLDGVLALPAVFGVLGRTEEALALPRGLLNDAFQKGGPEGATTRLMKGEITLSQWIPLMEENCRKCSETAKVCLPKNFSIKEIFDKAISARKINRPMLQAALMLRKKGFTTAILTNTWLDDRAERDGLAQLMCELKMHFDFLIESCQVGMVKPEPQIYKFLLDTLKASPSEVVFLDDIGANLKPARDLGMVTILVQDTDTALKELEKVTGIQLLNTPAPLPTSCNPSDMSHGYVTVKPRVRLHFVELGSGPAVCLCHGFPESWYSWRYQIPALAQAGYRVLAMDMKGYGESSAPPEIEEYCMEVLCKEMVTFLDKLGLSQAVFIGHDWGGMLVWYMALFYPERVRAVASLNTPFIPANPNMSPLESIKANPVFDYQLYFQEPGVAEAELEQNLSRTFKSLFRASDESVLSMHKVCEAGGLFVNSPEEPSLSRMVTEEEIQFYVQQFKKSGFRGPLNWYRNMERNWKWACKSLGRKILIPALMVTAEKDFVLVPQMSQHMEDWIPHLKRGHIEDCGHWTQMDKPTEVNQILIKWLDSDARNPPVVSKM
Test: Inhibition of recombinant human soluble epoxide hydrolase using PHOME as substrate incubated for 5 mins followed by substrate addition by fluorescence assay

Row | IC50 | SMILES
1 | 1.82 nM | CCOC(=O)C1=C(c2ccccc2)NC(=O)NC1c1ccc(NC(=O)c2ccc(OC)cc2)cc1 (stereo not drawn)
2 | 0.48 nM | CCOC(=O)C1=C(c2ccccc2)NC(=O)NC1c1ccc(NC(=O)c2ccc(C)cc2)cc1 (stereo not drawn)
3 | 0.96 nM | CCOC(=O)C1=C(c2ccccc2)NC(=O)NC1c1ccc(NC(=O)c2ccc(F)cc2)cc1 (stereo not drawn)
4 | 0.48 nM | CCOC(=O)C1=C(c2ccccc2)NC(=O)NC1c1ccc(NC(=O)c2ccc(Cl)cc2)cc1 (stereo not drawn)

Further lines, the compound ahead of its results:

Row | SMILES | IC50
5 | CCOC(=O)C1=C(c2ccccc2)NC(=O)NC1c1ccc(NC(=O)CCC(=O)O)cc1 (stereo not drawn) | 2.22 nM
6 | CCOC(=O)C1=C(c2ccccc2)NC(=O)NC1c1ccc(NC(=O)c2ccccc2)cc1 (stereo not drawn) | 1.22 nM
7 | CCOC(=O)C1=C(c2ccccc2)NC(=O)NC1c1ccc(NC(=O)c2ccc([N+](=O)[O-])cc2)cc1 (stereo not drawn) | 2 nM
8 | CCOC(=O)C1=C(c2ccccc2)NC(=O)NC1c1ccc(NC(=O)c2ccccc2C(=O)O)cc1 (stereo not drawn) | 1.92 nM
